Numbers after ± are expanded uncertainties.

The conditions of series [1]: Crystal; DTA.
A short description of series [2]: Molar enthalpy of transition or fusion. Conditions: Crystal; DSC.

As for `CCCCCCCCCCCCCCCC(=O)OCC(COC(=O)CCCCCCCCCCCCCCC)OC(=O)CCCCCCCCCCCCCCC` [1,2,3-propanetriyl tri(hexadecanoate)], the Normal melting temperature in series [1] was found to be 67.4 ± 0.5 °C. Moreover, the “Molar enthalpy of transition or fusion” value in series [2] came out at 38.9 ± 1 kcal/mol.

Turning to `CC(C)Cc1ccc(C(C)C(=O)O)cc1` (stereo not given) [ibuprofen], in series [1], the Normal melting temperature came out at 74.5 ± 0.5 °C.

In the case of `CCCCCCCCCCCCCC(=O)O` [tetradecanoic acid], the Normal melting temperature in series [1] worked out at 53.1 ± 0.5 °C. Besides, the “Molar enthalpy of transition or fusion” value in series [2] was 10.9 ± 0.287 kcal/mol.

The values are drawn from the NIST ThermoML archive (doi:10.1021/je900342a).
